Experimental data from patent US12226409B2, “Treatment of hepatocellular carcinoma” (Eisai R&D Management Co., Ltd., priority 2017, dated 2025).

How the values were obtained:
[1] = system: unresectable hepatocellular carcinoma (HCC); experiment: REFLECT study, efficacy per independent review; format: in vivo, human
Description: The efficacy of LENVIMA was evaluated in a randomized, open-label, multicenter, international study (REFLECT; […]) conducted in patients with previously untreated unresectable hepatocellular carcinoma (HCC).

Partition coefficient = format: physicochemical; settings: read-out: partition coefficient (log P value)
Dissociation constant = format: physicochemical; settings: 25° C.
[2] = system: patients with unresectable HCC; experiment: Open-label phase 3 study, safety and side-effect profile (CTCAE v4.0)
Source text: (§3) Randomization was stratified according to region (Asia-Pacific or Western regions), macroscopic portal vein invasion and/or extrahepatic spread (yes or no), Eastern Cooperative Oncology Group performance status (0 or 1), and body weight (<60 kg or ≥60 kg).
(§4) Safety assessments included recording of vital signs, hematologic and biochemical laboratory testing, urinalysis, and electrocardiography.

Solubility = format: physicochemical
[3] = system: patients with unresectable HCC; settings: human, in vivo
Source text: as §3, §4

HCC = settings: cited from earlier work
[4] = system: patients with unresectable HCC; experiment: Quality of life, EORTC QLQ-C30 and QLQ-HCC18 questionnaires; format: in vivo, human; settings: role functioning, pain, diarrhea (QLQ-C30); nutrition, body image (QLQ-HCC18)
Description: (§1) The primary endpoint was overall survival.
(§2) Tumors were evaluated in accordance with mRECIST (Lencioni R., Semin Liver Dis., 30(1):52-60, 2010); RECIST 1.1 was applied for nonhepatic lesions (Eisenhauer, Eur J Cancer, 45(2):228-47, 2009). The liver was examined with computed tomography or magnetic resonance imaging was performed using a triphasic scanning technique. Assessments were performed every 8 weeks until disease progression. Quality of life questionnaires were administered at baseline, on day 1 of each subsequent treatment cycle, and at the off-treatment visit.

unresectable HCC = experiment: Open-label phase 3 noninferiority study, efficacy (tumor assessment by mRECIST); format: in vivo, human
Source text: as §1
Patients who were eligible for enrollment had unresectable HCC with diagnosis confirmed histologically or cytologically or with diagnosis confirmed clinically in accordance with the American Association for the Study of Liver Diseases criteria. Included patients also had ≥1 measureable target lesion, based on modified Response Evaluation Criteria in Solid Tumors (Lencioni 2010); Barcelona Clinic Liver Cancer stage B or C categorization (Bruix Hepatology 2011); Child-Pugh class A; and Eastern Cooperative Oncology Group performance status ≤1. All eligible patients had controlled blood pressure (≤150/90 mm Hg), and adequate organ function. Patients with ≥50% liver occupation, clear bile duct invasion, or portal vein invasion at the main portal vein were excluded. Patients also were excluded if that had received prior systemic therapy for HCC.
as §2
The primary endpoint of overall survival was first tested for noninferiority then for superiority. The required number of events for the primary analysis was 700 deaths, based on the fill analysis set. The HR and its 95% confidence interval (CI) were estimated from a Cox proportional hazard model with treatment group as a factor and with the analysis stratified according to the same factors applied for randomization.
A fixed-sequence procedure was followed to control the overall type I error rate of analyses for both the primary and secondary efficacy endpoints at α=0.05 (2-sided). After noninferiority was declared, secondary efficacy endpoints were tested. Differences in progression-free survival and time to progression were evaluated using a stratified log-rank test with randomization stratification factors, with the associated HR and its 95% CI. A difference in the objective response rate was evaluated using the Cochran-Mantel-Haenszel chi-square test with randomized stratification factors as strata, with associated odds ratio and its 95% CI. To assess futility, 2 interim analyses (at 30% and 70% of the target number of events) were performed using Bayesian predictive probability in a noninferiority design by the independent data monitoring committee.

COc1cc2nccc(Oc3ccc(NC(=O)NC4CC4)c(Cl)c3)c2cc1C(N)=O [LENVIMA, 4-[3-chloro-4-(N′-cyclopropylureido)phenoxy]-7-methoxyquinoline-6-carboxamide methanesulfonate]
Median PFS ([1]; RECIST 1.1, independent review): 7.3 months
Objective response rate ([1]; RECIST 1.1, independent review): 19%
PFS Number of Events ([1]; RECIST 1.1, independent review): 307
PFS Number of Events (%) ([1]; RECIST 1.1, independent review): (64) %
Number of deaths ([1]; in vivo): 351
Number of deaths (%) ([1]; in vivo): (73) %
Objective response rate ([1]; mRECIST, independent review): 41%
PFS Number of Events ([1]; mRECIST, independent review): 311
PFS Number of Events (%) ([1]; mRECIST, independent review): (65) %
logP (Partition coefficient): 3.3
pKa (Dissociation constant): 5.05
adverse reactions leading to dose reduction or interruption ([2]; in vivo): about 62%
discontinuation due to fatigue ([2]; in vivo): 1%
discontinuation due to hepatic encephalopathy ([2]; in vivo): 1%
discontinuation due to hepatic failure ([2]; in vivo): 1%
discontinuation due to hyperbilirubinemia ([2]; in vivo): 1%
dose reduction or interruption due to decreased appetite ([2]; in vivo): 8%
dose reduction or interruption due to diarrhea ([2]; in vivo): 8%
dose reduction or interruption due to fatigue ([2]; in vivo): 9%
dose reduction or interruption due to hypertension ([2]; in vivo): 6%
dose reduction or interruption due to palmar-plantar erythrodysesthesia syndrome ([2]; in vivo): 5%
dose reduction or interruption due to proteinuria ([2]; in vivo): 7%
serious adverse reaction: ascites ([2]; in vivo): 3%
serious adverse reaction: decreased appetite ([2]; in vivo): 2%
serious adverse reaction: hepatic encephalopathy ([2]; in vivo): 4%
serious adverse reaction: hepatic failure ([2]; in vivo): 3%
treatment discontinuation due to adverse reactions ([2]; in vivo): 20%
solubility in ethanol (dehydrated) (Solubility): practically insoluble
solubility in water (Solubility): slightly soluble

CNC(=O)c1cc(Oc2ccc(NC(=O)Nc3ccc(Cl)c(C(F)(F)F)c3)cc2)ccn1 [Sorafenib]
Median PFS ([1]; RECIST 1.1, independent review): 3.6 months
PFS Number of Events ([1]; RECIST 1.1, independent review): 320
PFS Number of Events (%) ([1]; RECIST 1.1, independent review): (67) %
Median OS ([1]; in vivo): 12.3 months
Number of deaths ([1]; in vivo): 350
Number of deaths (%) ([1]; in vivo): (74) %
Median PFS ([1]; mRECIST, independent review): 3.6 months
PFS Number of Events ([1]; mRECIST, independent review): 323
PFS Number of Events (%) ([1]; mRECIST, independent review): (68) %
AEs leading to dose reduction or interruption, subjects [3]: 55.6%
Dose modification: AST increased [3]: 3.8%
Dose modification: ascites [3]: 1.1%
Dose modification: hepatic encephalopathy [3]: 0.6%
Dose modification: neutrophil count decreased [3]: 1.1%
Dose modification: pyrexia [3]: 1.1%
Dose modification: vomiting [3]: 1.3%
Dose modification: weight decreased [3]: 0.8%
Dose reduction/interruption: Abdominal pain [3]: 8 (1.7) n (%)
Dose reduction/interruption: Abdominal pain upper [3]: 2 (0.4) n (%)
Dose reduction/interruption: Alanine aminotransferase increased [3]: 9 (1.9) n (%)
Dose reduction/interruption: Anemia [3]: 8 (1.7) n (%)
Dose reduction/interruption: Ascites [3]: 5 (1.1) n (%)
Dose reduction/interruption: Aspartate aminotransferase increased [3]: 18 (3.8) n (%)
Dose reduction/interruption: Asthenia [3]: 9 (1.9) n (%)
Dose reduction/interruption: Blood and lymphatic system disorders [3]: 13 (2.7) n (%)
Dose reduction/interruption: Blood bilirubin increased [3]: 14 (2.9) n (%)
Dose reduction/interruption: Decreased appetite [3]: 15 (3.2) n (%)
Dose reduction/interruption: Dehydration [3]: 0 (0.0) n (%)
Dose reduction/interruption: Diarrhea [3]: 35 (7.4) n (%)
Dose reduction/interruption: Dyspnea [3]: 4 (0.8) n (%)
Dose reduction/interruption: Edema peripheral [3]: 3 (0.6) n (%)
Dose reduction/interruption: Esophageal varices hemorrhage [3]: 1 (0.2) n (%)
Dose reduction/interruption: Fatigue [3]: 17 (3.6) n (%)
Dose reduction/interruption: Gamma-glutamyltransferase increased [3]: 4 (0.8) n (%)
Dose reduction/interruption: Gastrointestinal disorders [3]: 72 (15.2) n (%)
Dose reduction/interruption: General disorders and administration site conditions [3]: 35 (7.4) n (%)
Dose reduction/interruption: Hepatic encephalopathy [3]: 3 (0.6) n (%)
Dose reduction/interruption: Hepatic function abnormal [3]: 9 (1.9) n (%)
Dose reduction/interruption: Hepatobiliary disorders [3]: 19 (4.0) n (%)
Dose reduction/interruption: Hypertension [3]: 18 (3.8) n (%)
Dose reduction/interruption: Hyponatremia [3]: 0 (0.0) n (%)
Dose reduction/interruption: Investigations [3]: 52 (10.9) n (%)
Dose reduction/interruption: Malaise [3]: 0 (0.0) n (%)
Dose reduction/interruption: Metabolism and nutrition disorders [3]: 19 (4.0) n (%)
Dose reduction/interruption: Musculoskeletal and connective tissue disorders [3]: 9 (1.9) n (%)
Dose reduction/interruption: Myalgia [3]: 0 (0.0) n (%)
Dose reduction/interruption: Nausea [3]: 9 (1.9) n (%)
Dose reduction/interruption: Nervous system disorders [3]: 14 (2.9) n (%)
Dose reduction/interruption: Neutropenia [3]: 0 (0.0) n (%)
Dose reduction/interruption: Neutrophil count decreased [3]: 5 (1.1) n (%)
Dose reduction/interruption: PPE syndrome [3]: 18.5%
Dose reduction/interruption: Palmar-plantar erythrodysesthesia syndrome [3]: 88 (18.5) n (%)
Dose reduction/interruption: Platelet count decreased [3]: 12 (2.5) n (%)
Dose reduction/interruption: Proteinuria [3]: 7 (1.5) n (%)
Dose reduction/interruption: Pyrexia [3]: 5 (1.1) n (%)
Dose reduction/interruption: Rash [3]: 10 (2.1) n (%)
Dose reduction/interruption: Rash maculo-papular [3]: 5 (1.1) n (%)
Dose reduction/interruption: Renal and urinary disorders [3]: 9 (1.9) n (%)
Dose reduction/interruption: Respiratory, thoracic and mediastinal disorders [3]: 12 (2.5) n (%)
Dose reduction/interruption: Stomatitis [3]: 2 (0.4) n (%)
Dose reduction/interruption: Thrombocytopenia [3]: 4 (0.8) n (%)
Dose reduction/interruption: Vascular disorders [3]: 19 (4.0) n (%)
Dose reduction/interruption: Vomiting [3]: 6 (1.3) n (%)
Dose reduction/interruption: Weight decreased [3]: 4 (0.8) n (%)
Dose reduction/interruption: White blood cell count decreased [3]: 4 (0.8) n (%)
Dose reduction/interruption: decreased appetite [3]: 3.2%
Dose reduction/interruption: diarrhea [3]: 7.4%
Dose reduction/interruption: fatigue [3]: 3.6%
Dose reduction/interruption: hypertension [3]: 3.8%
Dose reduction/interruption: proteinuria [3]: 1.5%
Primary reason for discontinuation of treatment: Adverse event [3]: 43 (9.0) n (%)
Subjects with Any TEAEs [3]: 472 (99.4) n (%)
Subjects with any TEAEs leading to Dose Reduction or Interruption [3]: 264 (55.6) n (%)
TEAE: Abdominal pain [3]: 87 (18.3) n (%)
TEAE: Abdominal pain upper [3]: 40 (8.4) n (%)
TEAE: Alanine aminotransferase increased [3]: 52 (10.9) n (%)
TEAE: Alopecia [3]: 119 (25.1) n (%)
TEAE: Ascites [3]: 44 (9.3) n (%)
TEAE: Aspartate aminotransferase increased [3]: 80 (16.8) n (%)
TEAE: Asthenia [3]: 48 (10.1) n (%)
TEAE: Back pain [3]: 31 (6.5) n (%)
TEAE: Blood bilirubin increased [3]: 63 (13.3) n (%)
TEAE: Constipation [3]: 52 (10.9) n (%)
TEAE: Edema peripheral [3]: 33 (6.9) n (%)
TEAE: Fatigue [3]: 119 (25.1) n (%)
TEAE: Nausea [3]: 68 (14.3) n (%)
TEAE: Palmar-plantar erythrodysesthesia [3]: 52.4%
TEAE: Palmar-plantar erythrodysesthesia syndrome [3]: 249 (52.4) n (%)
TEAE: Platelet count decreased [3]: 58 (12.2) n (%)
TEAE: Pyrexia [3]: 63 (13.3) n (%)
TEAE: Rash [3]: 76 (16.0) n (%)
TEAE: Stomatitis [3]: 56 (11.8) n (%)
TEAE: Vomiting [3]: 36 (7.6) n (%)
TEAE: Weight decreased [3]: 106 (22.3) n (%)
Treatment-emergent adverse events of grade 3 or higher, patients [3]: 66.5%
Treatment-emergent adverse events, patients [3]: 99.4%
WBC count deceased, adjusted by treatment duration [3]: 0.15 episodes per SY
dysphonia, adjusted by treatment duration [3]: 0.28 episodes per SY
hepatic encephalopathy, adjusted by treatment duration [3]: 0.04 episodes per SY
hypothyroidism, adjusted by treatment duration [3]: 0.03 episodes per SY
neutrophil count decreased, adjusted by treatment duration [3]: 0.06 episodes per SY
proteinuria, adjusted by treatment duration [3]: 0.31 episodes per SY
subjects without a TEAE [3]: 3 subjects
Median overall survival (HCC; first-line treatment for HCC): 10.7 months
median improvement in overall survival compared with placebo (HCC; in vivo): 2.8 months
response rate (HCC; in vivo): 2%
time to clinically meaningful deterioration of quality of life [4]: deterioration was observed earlier
treatment-related fatal adverse events included ([2]; 1 event per patient): tumor hemorrhage, ischemic stroke, respiratory failure, and sudden death
Primary reason for discontinuation of treatment: Disease Progression (unresectable HCC; Full Analysis Set): 347 (72.9) n (%)
Median overall survival (unresectable HCC; in vivo): 12.3 mo
Median progression-free survival (unresectable HCC; mRECIST): 3.7 mo
Median time to progression (unresectable HCC; mRECIST): 3.7 mo
Objective response rate (unresectable HCC; mRECIST): 9.2%
